Experiments:
Vaccinia strain IHD-J = test system: Vaccinia strain IHD-J; design: species or system Balb/c mice; conditions: mouse, in vivo
[1] = test system: camelpox, cowpox, monkeypox, and vaccinia viruses; conditions: cited from earlier work

SMILES | Mean (number of pocks per tail) (Vaccinia strain IHD-J) | Mean difference compared to negative control (Saline) (Vaccinia strain IHD-J) | effectiveness in treating Orthopoxvirus infections [1]
Nc1ccn(C[C@@H](CO)OCP(=O)(O)O)c(=O)n1 [Cidofovir ™, Cidofovir] | 24.2 | −17.7 | effective
CC(=O)OCC(CCn1cnc2cnc(N)nc21)COC(C)=O [famciclovir] | – | – | effective
COc1c(C)c2c(c(O)c1C/C=C(\C)CCC(=O)O)C(=O)OC2 [mycophenolic acid] | – | – | effective
Nc1nc2c(ncn2CCC(CO)CO)c(=O)[nH]1 [penciclovir] | – | – | effective
NC(=O)c1ncn([C@@H]2O[C@H](CO)[C@@H](O)[C@H]2O)n1 [ribavirin] | – | – | effective

From patent US20060110407A1 (priority 2001, published 2006)
